# pIC50: −log10 of the molar value.
# Columns and labels:
# Assay in all cases: kinobeads assay with mass spectrometry detection of kinases (kinase selectivity profile)
# Type in all cases: binding
# kinases (kinome) [1] = target: T1, kinases (kinome) (Homo sapiens, UniProt P00519); settings: ABL (TK), IPI00221171
# T1 construct: determined in kinobeads assays with mass spectrometry detection of kinases as described previously; endogenous in cells; host or cells: cell lysate
# From the text: (§1) The protein kinase complement of the human genome (the kinome) was described previously (Manning et al., 2002. Science 298(5600):1912-1934). Sequence accession numbers are defined by the International Protein Index (IPI) (Kersey et al., 2004. Proteomics 4(7):1985-1988).
# kinases (kinome) [2] = target: T2, kinases (kinome) (Homo sapiens, UniProt Q05655); settings: PKCd (AGC), IPI00329236
# T2 construct: determined in kinobeads assays with mass spectrometry detection of kinases as described previously; endogenous in cells; host or cells: cell lysate
# From the text: as §1
# kinases (kinome) [3] = target: T3, kinases (kinome) (Homo sapiens, UniProt P49759); settings: CLK1 (CMGC), IPI00915761
# T3 construct: determined in kinobeads assays with mass spectrometry detection of kinases as described previously; endogenous in cells; host or cells: cell lysate
# From the text: as §1
# kinases (kinome) [4] = target: T4, kinases (kinome) (Homo sapiens, UniProt P43403); settings: ZAP70 (TK), IPI00329789
# T4 construct: determined in kinobeads assays with mass spectrometry detection of kinases as described previously; endogenous in cells; host or cells: cell lysate
# T4 sequence (P43403 1-619): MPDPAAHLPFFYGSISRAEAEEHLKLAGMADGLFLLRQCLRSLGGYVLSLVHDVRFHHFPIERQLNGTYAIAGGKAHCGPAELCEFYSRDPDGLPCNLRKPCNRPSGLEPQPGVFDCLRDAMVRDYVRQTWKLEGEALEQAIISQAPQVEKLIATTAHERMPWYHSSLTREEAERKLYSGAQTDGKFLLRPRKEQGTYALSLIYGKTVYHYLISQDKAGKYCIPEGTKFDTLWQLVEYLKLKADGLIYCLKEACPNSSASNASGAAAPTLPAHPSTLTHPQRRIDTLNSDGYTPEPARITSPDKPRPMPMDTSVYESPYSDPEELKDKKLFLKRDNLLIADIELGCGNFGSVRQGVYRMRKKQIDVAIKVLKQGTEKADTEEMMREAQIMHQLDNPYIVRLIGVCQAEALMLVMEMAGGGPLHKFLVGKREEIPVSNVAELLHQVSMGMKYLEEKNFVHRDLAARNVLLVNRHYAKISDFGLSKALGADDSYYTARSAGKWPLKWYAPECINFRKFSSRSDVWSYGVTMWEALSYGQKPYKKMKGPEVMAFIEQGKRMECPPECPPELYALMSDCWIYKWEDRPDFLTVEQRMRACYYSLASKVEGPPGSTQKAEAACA
# From the text: as §1
# kinases (kinome) [5] = target: T5, kinases (kinome) (Homo sapiens, UniProt Q16584); settings: MLK3 (TKL), IPI00000977
# T5 construct: determined in kinobeads assays with mass spectrometry detection of kinases as described previously; endogenous in cells; host or cells: cell lysate
# From the text: as §1
# kinases (kinome) [6] = target: T6, kinases (kinome) (Homo sapiens, UniProt O15197); settings: EphB6 (TK), IPI00005222
# T6 construct: determined in kinobeads assays with mass spectrometry detection of kinases as described previously; endogenous in cells; host or cells: cell lysate
# T6 sequence (O15197 32-1021): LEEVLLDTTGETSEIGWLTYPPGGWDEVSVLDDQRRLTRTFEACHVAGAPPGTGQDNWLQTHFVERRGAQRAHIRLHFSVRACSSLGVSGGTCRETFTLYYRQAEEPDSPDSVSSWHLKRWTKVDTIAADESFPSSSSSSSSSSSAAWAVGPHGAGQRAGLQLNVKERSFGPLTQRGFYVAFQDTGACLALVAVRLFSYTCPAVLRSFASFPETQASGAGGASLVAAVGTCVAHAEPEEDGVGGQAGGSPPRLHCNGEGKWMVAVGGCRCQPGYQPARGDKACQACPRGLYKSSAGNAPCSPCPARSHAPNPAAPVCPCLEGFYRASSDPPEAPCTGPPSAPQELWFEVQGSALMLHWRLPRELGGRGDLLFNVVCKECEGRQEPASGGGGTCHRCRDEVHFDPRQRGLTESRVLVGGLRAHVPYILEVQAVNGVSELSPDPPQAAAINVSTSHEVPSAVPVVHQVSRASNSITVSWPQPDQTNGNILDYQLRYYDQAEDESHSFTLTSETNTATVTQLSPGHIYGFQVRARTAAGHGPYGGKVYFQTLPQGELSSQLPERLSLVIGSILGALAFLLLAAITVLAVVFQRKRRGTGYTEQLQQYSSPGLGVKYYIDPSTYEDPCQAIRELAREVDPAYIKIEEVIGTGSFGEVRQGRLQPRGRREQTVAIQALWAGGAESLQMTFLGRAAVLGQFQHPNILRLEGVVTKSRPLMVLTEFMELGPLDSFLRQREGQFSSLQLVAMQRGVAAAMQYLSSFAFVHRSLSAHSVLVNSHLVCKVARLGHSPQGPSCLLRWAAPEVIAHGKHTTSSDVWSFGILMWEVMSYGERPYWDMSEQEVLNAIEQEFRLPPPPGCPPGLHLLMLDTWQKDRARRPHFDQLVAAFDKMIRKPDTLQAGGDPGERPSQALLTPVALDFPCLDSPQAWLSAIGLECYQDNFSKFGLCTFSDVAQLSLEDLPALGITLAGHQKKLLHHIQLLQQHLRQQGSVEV
# From the text: as §1
# kinases (kinome) [7] = target: T7, kinases (kinome) (Homo sapiens, UniProt O75676); settings: MSK2 (AGC), IPI00022536
# T7 construct: determined in kinobeads assays with mass spectrometry detection of kinases as described previously; endogenous in cells; host or cells: cell lysate
# From the text: as §1
# kinases (kinome) [8] = target: T8, kinases (kinome) (Homo sapiens, UniProt Q99570); settings: PIK3R4 (Other), IPI00024006
# T8 construct: determined in kinobeads assays with mass spectrometry detection of kinases as described previously; endogenous in cells; host or cells: cell lysate
# From the text: as §1
# kinases (kinome) [9] = target: T9, kinases (kinome) (Homo sapiens, UniProt P37173); settings: TGFbR2 (TKL), IPI00164934
# T9 construct: determined in kinobeads assays with mass spectrometry detection of kinases as described previously; endogenous in cells; host or cells: cell lysate
# From the text: as §1
# kinases (kinome) [10] = target: T10, kinases (kinome) (Homo sapiens, UniProt P36894); settings: BMPR1A (TKL), IPI00005731
# T10 construct: determined in kinobeads assays with mass spectrometry detection of kinases as described previously; endogenous in cells; host or cells: cell lysate
# From the text: as §1
# kinases (kinome) [11] = target: T11, kinases (kinome) (Homo sapiens, UniProt Q9BYT3); settings: STK33 (CAMK), IPI00302351
# T11 construct: determined in kinobeads assays with mass spectrometry detection of kinases as described previously; endogenous in cells; host or cells: cell lysate
# From the text: as §1
# kinases (kinome) [12] = target: T12, kinases (kinome) (Homo sapiens, UniProt Q15759); settings: p38b (CMGC), IPI00019473
# T12 construct: determined in kinobeads assays with mass spectrometry detection of kinases as described previously; endogenous in cells; host or cells: cell lysate
# From the text: as §1
# kinases (kinome) [13] = target: T13, kinases (kinome) (Homo sapiens, UniProt O75716); settings: MPSK1 (Other), IPI00915837
# T13 construct: determined in kinobeads assays with mass spectrometry detection of kinases as described previously; endogenous in cells; host or cells: cell lysate
# From the text: as §1
# T11 sequence (Q9BYT3 whole entry): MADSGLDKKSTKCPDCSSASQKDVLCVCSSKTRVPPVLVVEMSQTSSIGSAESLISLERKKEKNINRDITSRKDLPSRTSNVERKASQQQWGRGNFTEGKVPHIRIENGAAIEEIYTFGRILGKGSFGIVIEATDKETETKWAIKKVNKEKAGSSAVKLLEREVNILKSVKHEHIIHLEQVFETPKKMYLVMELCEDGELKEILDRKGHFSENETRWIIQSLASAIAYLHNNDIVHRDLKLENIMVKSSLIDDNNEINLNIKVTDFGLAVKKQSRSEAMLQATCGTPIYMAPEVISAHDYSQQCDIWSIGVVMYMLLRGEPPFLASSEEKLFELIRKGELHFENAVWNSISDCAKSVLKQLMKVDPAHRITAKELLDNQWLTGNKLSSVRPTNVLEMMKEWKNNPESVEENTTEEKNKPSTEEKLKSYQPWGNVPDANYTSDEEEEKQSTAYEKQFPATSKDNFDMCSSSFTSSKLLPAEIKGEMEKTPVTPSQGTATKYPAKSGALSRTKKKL
# T13 sequence (O75716 whole entry): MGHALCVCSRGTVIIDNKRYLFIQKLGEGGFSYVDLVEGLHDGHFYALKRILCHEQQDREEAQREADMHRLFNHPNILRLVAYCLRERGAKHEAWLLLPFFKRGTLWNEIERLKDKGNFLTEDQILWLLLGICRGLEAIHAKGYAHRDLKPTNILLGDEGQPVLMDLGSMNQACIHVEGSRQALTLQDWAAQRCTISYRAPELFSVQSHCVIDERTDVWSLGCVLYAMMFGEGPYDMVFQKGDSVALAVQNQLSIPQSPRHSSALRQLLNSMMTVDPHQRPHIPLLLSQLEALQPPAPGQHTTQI
# T12 sequence (Q15759 whole entry): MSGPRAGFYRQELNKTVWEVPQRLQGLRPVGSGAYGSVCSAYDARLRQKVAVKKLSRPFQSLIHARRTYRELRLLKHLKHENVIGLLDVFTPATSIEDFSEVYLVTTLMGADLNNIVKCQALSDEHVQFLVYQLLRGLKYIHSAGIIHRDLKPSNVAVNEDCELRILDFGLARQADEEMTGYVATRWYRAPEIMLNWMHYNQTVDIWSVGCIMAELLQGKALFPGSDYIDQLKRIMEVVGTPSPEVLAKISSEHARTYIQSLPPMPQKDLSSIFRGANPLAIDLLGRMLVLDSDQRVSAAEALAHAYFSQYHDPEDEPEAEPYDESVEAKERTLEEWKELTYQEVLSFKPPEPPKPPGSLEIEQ
# T8 sequence (Q99570 whole entry): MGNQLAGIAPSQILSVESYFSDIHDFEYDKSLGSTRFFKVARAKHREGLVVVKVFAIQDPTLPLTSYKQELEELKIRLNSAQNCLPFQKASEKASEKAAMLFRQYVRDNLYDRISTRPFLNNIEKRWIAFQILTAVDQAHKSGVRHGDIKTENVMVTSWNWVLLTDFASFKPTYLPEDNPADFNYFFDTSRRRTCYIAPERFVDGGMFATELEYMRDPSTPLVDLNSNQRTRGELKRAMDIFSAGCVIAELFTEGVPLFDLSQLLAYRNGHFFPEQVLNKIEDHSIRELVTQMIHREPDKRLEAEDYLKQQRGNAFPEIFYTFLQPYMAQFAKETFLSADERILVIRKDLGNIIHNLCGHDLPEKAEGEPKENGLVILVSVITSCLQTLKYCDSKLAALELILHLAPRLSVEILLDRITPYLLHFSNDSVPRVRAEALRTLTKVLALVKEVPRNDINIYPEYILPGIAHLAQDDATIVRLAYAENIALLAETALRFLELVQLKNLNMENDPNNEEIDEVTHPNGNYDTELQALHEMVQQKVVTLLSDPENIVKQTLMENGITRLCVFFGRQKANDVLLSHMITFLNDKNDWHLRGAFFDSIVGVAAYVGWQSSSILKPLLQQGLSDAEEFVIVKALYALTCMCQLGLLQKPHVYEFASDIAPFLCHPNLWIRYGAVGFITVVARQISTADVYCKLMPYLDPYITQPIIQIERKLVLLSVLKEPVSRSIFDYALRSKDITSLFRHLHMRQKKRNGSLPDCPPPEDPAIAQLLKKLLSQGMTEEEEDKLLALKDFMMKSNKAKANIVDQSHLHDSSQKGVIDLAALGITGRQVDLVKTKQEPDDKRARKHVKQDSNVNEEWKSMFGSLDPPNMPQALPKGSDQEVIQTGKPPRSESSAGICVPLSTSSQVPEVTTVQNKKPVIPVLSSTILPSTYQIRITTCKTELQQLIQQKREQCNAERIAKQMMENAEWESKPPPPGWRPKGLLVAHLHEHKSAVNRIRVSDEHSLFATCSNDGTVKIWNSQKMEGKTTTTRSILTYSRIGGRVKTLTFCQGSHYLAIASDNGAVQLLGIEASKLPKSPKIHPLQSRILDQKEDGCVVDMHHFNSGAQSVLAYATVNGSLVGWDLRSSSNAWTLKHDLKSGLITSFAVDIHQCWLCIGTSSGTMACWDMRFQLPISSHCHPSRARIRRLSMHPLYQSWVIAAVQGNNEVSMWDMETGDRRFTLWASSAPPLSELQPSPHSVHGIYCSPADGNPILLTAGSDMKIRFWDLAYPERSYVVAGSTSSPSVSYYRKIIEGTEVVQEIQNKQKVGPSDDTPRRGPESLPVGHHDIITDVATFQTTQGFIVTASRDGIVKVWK
# T3 sequence (P49759 whole entry): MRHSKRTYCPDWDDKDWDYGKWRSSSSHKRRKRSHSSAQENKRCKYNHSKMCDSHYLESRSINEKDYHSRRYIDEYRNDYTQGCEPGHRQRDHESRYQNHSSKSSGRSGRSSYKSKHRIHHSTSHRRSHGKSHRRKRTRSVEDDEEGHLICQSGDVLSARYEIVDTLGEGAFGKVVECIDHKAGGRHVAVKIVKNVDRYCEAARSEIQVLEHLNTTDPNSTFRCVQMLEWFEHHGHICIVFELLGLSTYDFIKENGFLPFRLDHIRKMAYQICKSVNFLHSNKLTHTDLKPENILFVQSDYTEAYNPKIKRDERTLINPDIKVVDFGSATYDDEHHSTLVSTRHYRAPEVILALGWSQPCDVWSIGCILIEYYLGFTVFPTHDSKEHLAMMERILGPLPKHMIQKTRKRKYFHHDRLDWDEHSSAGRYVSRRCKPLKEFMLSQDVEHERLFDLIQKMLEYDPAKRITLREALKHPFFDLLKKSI
# T7 sequence (O75676 whole entry): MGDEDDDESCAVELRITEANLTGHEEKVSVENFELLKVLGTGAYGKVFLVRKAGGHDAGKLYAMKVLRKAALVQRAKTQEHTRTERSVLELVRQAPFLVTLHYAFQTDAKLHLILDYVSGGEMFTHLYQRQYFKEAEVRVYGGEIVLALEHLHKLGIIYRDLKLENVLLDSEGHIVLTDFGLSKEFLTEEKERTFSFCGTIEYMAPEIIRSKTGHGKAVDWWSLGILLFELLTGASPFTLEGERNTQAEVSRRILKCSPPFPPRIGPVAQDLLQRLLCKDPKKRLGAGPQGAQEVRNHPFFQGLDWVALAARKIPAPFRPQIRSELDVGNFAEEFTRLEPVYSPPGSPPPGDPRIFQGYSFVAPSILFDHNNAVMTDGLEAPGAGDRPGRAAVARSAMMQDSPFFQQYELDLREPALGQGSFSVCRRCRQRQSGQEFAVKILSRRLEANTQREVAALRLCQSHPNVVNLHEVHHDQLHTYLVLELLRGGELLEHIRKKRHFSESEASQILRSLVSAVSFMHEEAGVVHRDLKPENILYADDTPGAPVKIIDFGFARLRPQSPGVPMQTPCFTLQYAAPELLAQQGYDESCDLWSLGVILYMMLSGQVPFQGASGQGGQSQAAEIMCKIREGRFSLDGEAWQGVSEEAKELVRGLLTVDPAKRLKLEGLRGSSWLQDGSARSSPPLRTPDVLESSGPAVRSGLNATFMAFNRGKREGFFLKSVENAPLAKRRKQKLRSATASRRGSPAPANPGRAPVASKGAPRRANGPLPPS
# T9 sequence (P37173 23-567): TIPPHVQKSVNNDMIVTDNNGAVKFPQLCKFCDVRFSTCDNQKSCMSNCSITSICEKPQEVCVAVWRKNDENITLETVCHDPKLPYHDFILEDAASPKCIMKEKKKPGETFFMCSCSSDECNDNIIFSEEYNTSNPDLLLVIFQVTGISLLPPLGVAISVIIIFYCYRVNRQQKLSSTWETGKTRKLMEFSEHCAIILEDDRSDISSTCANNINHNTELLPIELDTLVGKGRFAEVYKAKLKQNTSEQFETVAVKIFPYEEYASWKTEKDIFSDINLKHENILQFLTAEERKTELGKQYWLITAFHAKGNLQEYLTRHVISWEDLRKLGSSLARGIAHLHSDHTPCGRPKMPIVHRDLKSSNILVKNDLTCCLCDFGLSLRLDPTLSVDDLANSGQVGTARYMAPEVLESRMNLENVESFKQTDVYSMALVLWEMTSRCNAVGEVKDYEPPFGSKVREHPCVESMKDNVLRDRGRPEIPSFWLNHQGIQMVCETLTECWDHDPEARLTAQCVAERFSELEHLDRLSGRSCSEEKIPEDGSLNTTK
# T2 sequence (Q05655 whole entry): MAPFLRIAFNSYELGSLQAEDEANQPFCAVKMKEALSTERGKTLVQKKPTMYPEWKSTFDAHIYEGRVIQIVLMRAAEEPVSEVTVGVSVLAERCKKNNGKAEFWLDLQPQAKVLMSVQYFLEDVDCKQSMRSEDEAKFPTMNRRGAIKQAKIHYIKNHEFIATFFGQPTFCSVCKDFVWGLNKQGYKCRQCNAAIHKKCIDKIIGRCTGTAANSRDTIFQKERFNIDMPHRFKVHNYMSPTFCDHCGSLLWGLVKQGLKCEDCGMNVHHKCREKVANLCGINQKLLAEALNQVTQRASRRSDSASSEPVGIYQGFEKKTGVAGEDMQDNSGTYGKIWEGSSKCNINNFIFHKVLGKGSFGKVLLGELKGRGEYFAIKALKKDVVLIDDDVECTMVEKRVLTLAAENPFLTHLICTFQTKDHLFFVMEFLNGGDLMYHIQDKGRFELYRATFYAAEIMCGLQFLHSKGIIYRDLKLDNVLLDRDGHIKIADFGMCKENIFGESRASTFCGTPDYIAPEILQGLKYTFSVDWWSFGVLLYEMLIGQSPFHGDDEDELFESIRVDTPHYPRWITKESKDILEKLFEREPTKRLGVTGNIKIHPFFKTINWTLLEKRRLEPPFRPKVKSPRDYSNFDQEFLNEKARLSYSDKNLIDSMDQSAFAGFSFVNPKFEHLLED
SMILES,pIC50 (kinases (kinome) [1]),pIC50 (kinases (kinome) [2]),pIC50 (kinases (kinome) [3]),pIC50 (kinases (kinome) [4]),pIC50 (kinases (kinome) [5]),pIC50 (kinases (kinome) [6]),pIC50 (kinases (kinome) [7]),pIC50 (kinases (kinome) [8]),pIC50 (kinases (kinome) [9]),pIC50 (kinases (kinome) [10]),pIC50 (kinases (kinome) [11]),pIC50 (kinases (kinome) [12]),pIC50 (kinases (kinome) [13])
"CCNC(=O)Nc1ccc(-c2cc(-c3ccccc3C#N)nc(N3CCOC[C@@H]3C)n2)cc1 [Example 8, (S)-1-(4-(6-(2-cyanophenyl)-2-(3-methylmorpholino)pyrimidin-4-yl)phenyl)-3-ethylurea]",–,–,< 5.00,–,< 5.00,–,–,–,–,< 5.00,–,–,–
"C[C@H]1COCCN1c1nc(-c2ccc(NC(=O)NC3CC3)cc2)cc(-c2cccnc2S(C)(=O)=O)n1 [Example 46, (S)-1-cyclopropyl-3-(4-(2-(3-methylmorpholino)-6-(2-(methylsulfonyl)pyridin-3-yl)pyrimidin-4-yl)phenyl)urea]",–,< 5.00,< 5.00,< 5.00,–,< 5.00,< 5.00,< 5.00,< 5.00,< 5.00,< 5.00,–,–
"C[C@H]1COCCN1c1nc(-c2ccc(NC(=O)N[C@H]3CCC[C@@H]3O)cc2)cc(-c2cc(F)ccc2S(C)(=O)=O)n1 [Example 76, 1-(4-(6-(5-fluoro-2-(methylsulfonyl)phenyl)-2-((S)-3-methylmorpholino)pyrimidin-4-yl)phenyl)-3-((1S,2S)-2-hydroxycyclopentyl)urea]",< 5.00,< 5.00,–,–,–,–,–,< 5.00,< 5.00,< 5.00,–,–,< 5.00
"C[C@H]1COCCN1c1cc(-c2ccccn2)nc(-c2ccc(NC(=O)NCCO)cc2)n1 [Example 43, (S)-1-(2-hydroxyethyl)-3-(4-(4-(3-methylmorpholino)-6-(pyridin-2-yl)pyrimidin-2-yl)phenyl)urea]",–,< 5.00,< 5.00,< 5.00,< 5.00,–,< 5.00,< 5.00,–,–,–,< 5.00,–

# Now from value to molecule:
pIC50 (kinases (kinome) [1]),pIC50 (kinases (kinome) [2]),pIC50 (kinases (kinome) [3]),pIC50 (kinases (kinome) [4]),pIC50 (kinases (kinome) [5]),pIC50 (kinases (kinome) [6]),pIC50 (kinases (kinome) [7]),pIC50 (kinases (kinome) [8]),pIC50 (kinases (kinome) [9]),pIC50 (kinases (kinome) [10]),pIC50 (kinases (kinome) [11]),pIC50 (kinases (kinome) [12]),pIC50 (kinases (kinome) [13]),SMILES
< 5.00,< 5.00,< 5.00,< 5.00,< 5.00,< 5.00,< 5.00,< 5.00,< 5.00,< 5.00,< 5.00,–,–,"C[C@H]1COCCN1c1nc(-c2ccc(NC(=O)NC3CC3)cc2)cc(-c2cc(F)ccc2S(C)(=O)=O)n1 [Example 40, (S)-1-cyclopropyl-3-(4-(6-(5-fluoro-2-(methylsulfonyl)phenyl)-2-(3-methylmorpholino)pyrimidin-4-yl)phenyl)urea]"
–,–,–,–,< 5.00,< 5.00,–,–,< 5.00,< 5.00,–,< 5.00,< 5.00,"C[C@H]1COCCN1c1cc(-c2ccccc2S(C)(=O)=O)nc(-c2ccc(NC(=O)NC3CC3)cc2)n1 [Example 6, (S)-1-cyclopropyl-3-(4-(4-(3-methylmorpholino)-6-(2-(methylsulfonyl)phenyl)pyrimidin-2-yl)phenyl)urea]"
< 5.00,< 5.00,–,< 5.00,< 5.00,< 5.00,–,< 5.00,< 5.00,–,< 5.00,< 5.00,< 5.00,"C[C@H]1COCCN1c1nc(-c2ccc(NC(=O)NC3CC3)cc2)cc(-c2ccccc2S(C)(=O)=O)n1 [Example 4, (S)-1-cyclopropyl-3-(4-(2-(3-methylmorpholino)-6-(2-(methylsulfonyl)phenyl)pyrimidin-4-yl)phenyl)urea]"

# Source: patent publication US9249129B2, “Morpholino substituted urea derivatives as mTOR inhibitors” (CELLZOME LIMITED, priority 2010, dated 2016)
